# Laboratory results taken from patent US20090088323A1, “Compositions with cyclopropenes and adjuvants” (priority 2004, published 2009).
# Legend:
# [1] = system: Tomatoes (Rutgers 39 Variety); test: Tomato epinasty test (foliar spray to run off, then ethylene exposure); assay type: in vivo
# Method: Tomato epinasty tests were performed as follows:
# Two seeds were place in each pot. Plants that had expanded first true leaves and were between 3 and 5 inches high were used for the tomato epinasty test.
# To conduct the assay, the plants were sprayed-to run off with the test 1-MCP foliar spray and allowed to dry for 4 hours in sunlight These operations were performed in a ventilated area away from the plants growing in the greenhouse so there would not be any unintended treatment to growing plants destined for later experiments.
# (§1) The 1-MCP treated plants and both treated and untreated controls were placed into an SLX controlled-atmosphere shipping box and sealed. To the box, ethylene was injected through a septum, which gave a concentration of 14 ppm. The plants were held sealed for 12-14 hours in the dark with ethylene in the atmosphere. At the end of ethylene treatment, the box was opened and scored for epinasty. Scoring for epinasty was accomplished by using the following scoring system for each pot. • 1. 0% no epinasty (100% control) • 2. 20% A couple leaves show some drooping (80% control) • 3. 50% Plants show 50% of full response. Not all leaves need to show effect. (50% control) • 4. 80% Almost all leaves drooping and some show underside of leaf exposed on top. (20% control) • 5. 100% Leaves completely drooping and the underside of the leaf exposed from above. (0% control)
# The score of each pot is recorded. The average of 6 or 8 pots is averaged to get a score. The percentage improvement is calculated by interpolating the percentage improvement from the control water (i.e., no additives) 1-MCP treatment.
# Tomato epinasty tests were conducted using a formulation that included water, a 1-MCP α-CD complex, and sodium salt of EDTA. […] The amount of sodium salt of EDTA in each formulation was 100 ppm. In some formulations, further ingredients were included, as described in the examples below.
# Tomato epinasty tests were conducted using a formulation that included water; a 1-MCP α-CD complex that contained 0. […] The amount of 1-MCP α-CD complex was chosen so that the spray formulation had 1.2 ppm of 1-MCP. The amount of sodium salt of EDTA was kept at 50 ppm in the liquid. Also included in the spray formulations were various silicone oils (0.1% by weight based on the weight of the spray).
# The amount of 1-MCP α-CD complex was chosen so that the spray formulation had 1.2 ppm of 1-MCP. The amount of sodium salt of EDTA was kept at 50 ppm. Also included in the spray formulations were various silicone oils at 0.1% by weight based on the weight of the spray formulation and sodium dioctylsufosuccinate surfactant at 0.05% by weight based on the weight of the spray formulation.
# [2] = system: Tomatoes (Rutgers 39 Variety); test: Tomato epinasty test, plants sprayed in spray hood with motorized track sprayer; assay type: in vivo; details: 1-MCP spray rate 20 grams/hectare, no adjuvant
# Method: Tomatoes (Rutgers 39 Variety Harris Seeds No 885 Lot 37729-A3) were grown in 2 ½″ square pots filled with a commercial potting mix. Two seeds were place in each pot. Plants that had expanded first true leaves and were between 3 and 5 inches high were used for the tomato epinasty test.
# as §1
# The score of each pot is recorded. The average of 6 or 8 pots is averaged to get a score. The percentage improvement is calculated by interpolating the percentage improvement from the control water (i.e., no additives) 1-MCP treatment. […]
compound,measurement,setting,value
"CC1=CC1 [1-MCP, 1-methylcyclopropene]",% Control of Epinasty,"[1]; 1.2 ppm 1-MCP, silicone oil 0.1 weight % / sodium dioctylsulfosuccinate 0.05 weight % (0 for control), 50 ppm EDTA sodium salt",8%
same,% Control of Epinasty,"[1]; 1.2 ppm 1-MCP, silicone oil 0.1 weight % in spray (0 for control), 50 ppm EDTA sodium salt",8%
same,% Control of Epinasty,"[1]; 70 ppb 1-MCP (as α-CD complex), no adjuvants, 100 ppm EDTA sodium salt, 14 ppm ethylene 12-14 h",10%
same,% Control of Epinasty,"[1]; 140 ppb 1-MCP (as α-CD complex), no adjuvants, 100 ppm EDTA sodium salt",15%
same,% Control of Epinasty,"[1]; 280 ppb 1-MCP (as α-CD complex), no adjuvants, 100 ppm EDTA sodium salt",35%
same,% Control of Epinasty,"[1]; 1400 ppb 1-MCP (as α-CD complex), no adjuvants, 100 ppm EDTA sodium salt",85%
same,% Control of Epinasty,[2],26%
